# Test results from patent publication US20100041642A1, “UREA INHIBITORS OF MAP KINASES” (LOCUS PHARMACEUTICALS, INC., priority 2008, published 2010).
# Target: p38 (Homo sapiens, UniProt Q16539)
# Assay: Protein Kinase Assay (33P incorporation from γ-[33P]ATP into GST-ATF-2)
# Type: biochemical
# Conditions: 2 nM p38, preincubated 20 min at 30° C.; 10 uM cold ATP, 2 uM GST-ATF2, 70 min; read-out: ACT. (Activity), IC50 category in Protein Kinase Assay
# Description: Protein Kinase Assay. The protein kinase activity of p38 was determined by measuring the incorporation of ^33P from γ-[^33P]ATP into the GST-ATF-2 substrate, amino acids 19-96 (Upstate, N.Y. USA). The reactions were carried out in a final volume of 50 μL of 24 mM Tris-HCl buffer, pH 7.5, containing 13 mM MgCl2, 12% Glycerol, 2% DMSO, 2 mM DTT, […] of γ-[^33P]ATP (1000 Ci/mmol; 1 Ci=37 GBq) (GE Healthcare, Piscataway, N.J.), 10 uM cold ATP (GE Healthcare, Piscataway, N.J.), and 2 uM GST-ATF2. Compounds were preincubated with 2 nM p38 for 20 min at 30° C.; the reactions were initiated by the addition of GST-ATF2 and ATP and incubated for 70 min at 30° C. before being stopped by the addition of 10 μL of 600 mM phosphoric acid. The phosphorylated substrate was captured on phosphocellulose 96-well plate (Millipore MAPHNOB 10), washed with 100 mM phosphoric acid, and counted in a BeckmenCoulter LS6500 liquid scintillation counter. […] (Activity).
# Sequence of p38 (Q16539 whole entry): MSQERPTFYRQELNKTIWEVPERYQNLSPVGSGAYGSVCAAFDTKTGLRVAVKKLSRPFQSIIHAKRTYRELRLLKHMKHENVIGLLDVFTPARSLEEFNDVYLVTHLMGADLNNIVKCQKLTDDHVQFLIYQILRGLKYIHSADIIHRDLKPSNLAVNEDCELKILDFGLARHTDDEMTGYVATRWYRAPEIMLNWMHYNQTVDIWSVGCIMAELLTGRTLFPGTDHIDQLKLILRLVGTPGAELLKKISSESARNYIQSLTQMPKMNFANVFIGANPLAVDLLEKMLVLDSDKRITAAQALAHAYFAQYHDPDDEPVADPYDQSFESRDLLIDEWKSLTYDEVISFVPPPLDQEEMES
row,IC50,SMILES
1,< 0.1 µM,"Cc1ccc(NC(=O)Nc2sc(C(C)(C)C)cc2C(=O)N2CCN(C)C(=O)C2(C)C)cc1-c1ccc(C(C)N2CCOCC2)nc1 (stereo not drawn) [1-(5-tert-butyl-3-(2,2,4-trimethyl-3-oxopiperazine-1-carbonyl)thiophen-2-yl)-3-(4-methyl-3-(6-(1-morpholinoethyl)pyridin-3-yl)phenyl)urea]"
2,< 0.1 µM,"Cc1ccc(NC(=O)Nc2sc(C(C)(C)C)cc2C(=O)N2CCN(C)C(=O)C2(C)C)cc1-c1ccc(N2CCN(C)CC2)nc1 [1-(5-tert-butyl-3-(2,2,4-trimethyl-3-oxopiperazine-1-carbonyl)thiophen-2-yl)-3-(4-methyl-3-(6-(4-methylpiperazin-1-yl)pyridin-3-yl)phenyl)urea]"
3,< 0.1 µM,"Cc1ccc(NC(=O)Nc2sc(C(C)(C)C)cc2C(=O)N2CCN(C)C(=O)C2(C)C)cc1-c1ccc(C(=O)N2CCOCC2)nc1 [1-(5-tert-butyl-3-(2,2,4-trimethyl-3-oxopiperazine-1-carbonyl)thiophen-2-yl)-3-(4-methyl-3-(6-(morpholine-4-carbonyl)pyridin-3-yl)phenyl)urea]"
4,< 0.1 µM,"Cc1ccc(NC(=O)Nc2sc(C(C)(C)C)cc2C(=O)N2CCN(C)C(=O)C2(C)C)cc1-c1ccc(CN2CCOCC2)nc1 [1-(5-tert-butyl-3-(2,2,4-trimethyl-3-oxopiperazine-1-carbonyl)thiophen-2-yl)-3-(4-methyl-3-(6-(morpholinomethyl)pyridin-3-yl)phenyl)urea]"
5,< 0.1 µM,"Cc1ccc(NC(=O)Nc2sc(C(C)(C)C)cc2C(=O)N2CCN(C)C(=O)C2(C)C)cc1-c1ccc(N2CCOCC2)nc1 [1-(5-tert-butyl-3-(2,2,4-trimethyl-3-oxopiperazine-1-carbonyl)thiophen-2-yl)-3-(4-methyl-3-(6-morpholinopyridin-3-yl)phenyl)urea]"
6,< 0.1 µM,"COc1ccc(-c2cc(NC(=O)Nc3sc(C(C)(C)C)cc3C(=O)N3CCNC(=O)C3(C)C)c(F)cc2C)cn1 [1-(5-tert-butyl-3-(2,2-dimethyl-3-oxopiperazine-1-carbonyl)thiophen-2-yl)-3-(2-fluoro-5-(6-methoxypyridin-3-yl)-4-methylphenyl)urea]"
7,< 0.1 µM,"Cc1c(NC(=O)Nc2sc(C(C)(C)C)cc2C(=O)N2CCNC(=O)C2(C)C)cccc1-c1ccc(N2CCOCC2)nc1 [1-(5-tert-butyl-3-(2,2-dimethyl-3-oxopiperazine-1-carbonyl)thiophen-2-yl)-3-(2-methyl-3-(6-morpholinopyridin-3-yl)phenyl)urea]"
8,< 0.1 µM,"Cc1ccc(-c2ccc(N3CCOCC3)nc2)cc1NC(=O)Nc1sc(C(C)(C)C)cc1C(=O)N1CCNC(=O)C1(C)C [1-(5-tert-butyl-3-(2,2-dimethyl-3-oxopiperazine-1-carbonyl)thiophen-2-yl)-3-(2-methyl-5-(6-morpholinopyridin-3-yl)phenyl)urea]"
9,< 0.1 µM,"Cc1ncc(NC(=O)Nc2sc(C(C)(C)C)cc2C(=O)N2CCNC(=O)C2(C)C)cc1-c1ccc(N2CCOCC2)nc1 [1-(5-tert-butyl-3-(2,2-dimethyl-3-oxopiperazine-1-carbonyl)thiophen-2-yl)-3-(2-methyl-6′-morpholino-3,3′-bipyridin-5-yl)urea]"
10,< 0.1 µM,"Cc1ccc(NC(=O)Nc2sc(C(C)(C)C)cc2C(=O)N2CCNC(=O)C2(C)C)cc1-c1ccc(C(C)O)nc1 (stereo not drawn) [1-(5-tert-butyl-3-(2,2-dimethyl-3-oxopiperazine-1-carbonyl)thiophen-2-yl)-3-(3-(6-(1-hydroxyethyl)pyridin-3-yl)-4-methylphenyl)urea]"

# More lines, now with the values behind:
row,SMILES,IC50
1,"COc1ccc(-c2cc(NC(=O)Nc3sc(C(C)(C)C)cc3C(=O)N3CCN(C)C(=O)C3(C)C)cc(F)c2C)cn1 [1-(5-tert-butyl-3-(2,2,4-trimethyl-3-oxopiperazine-1-carbonyl)thiophen-2-yl)-3-(3-fluoro-5-(6-methoxypyridin-3-yl)-4-methylphenyl)urea]",< 0.1 µM
2,"Cc1ccc(NC(=O)Nc2sc(C(C)(C)C)cc2C(=O)N2CCN(C)C(=O)C2(C)C)cc1N1C(=O)CN(C)C1=O [1-(5-tert-butyl-3-(2,2,4-trimethyl-3-oxopiperazine-1-carbonyl)thiophen-2-yl)-3-(4-methyl-3-(3-methyl-2,5-dioxoimidazolidin-1-yl)phenyl)urea]",< 0.1 µM
3,"Cc1ccc(NC(=O)Nc2sc(C(C)(C)C)cc2C(=O)N2CCN(C)C(=O)C2(C)C)cc1-c1ccc(CN2CCOCC2)cn1 [1-(5-tert-butyl-3-(2,2,4-trimethyl-3-oxopiperazine-1-carbonyl)thiophen-2-yl)-3-(4-methyl-3-(5-(morpholinomethyl)pyridin-2-yl)phenyl)urea]",< 0.1 µM
4,"Cc1nnc(-c2ccc(-c3cc(NC(=O)Nc4sc(C(C)(C)C)cc4C(=O)N4CCN(C)C(=O)C4(C)C)ccc3C)cn2)o1 [1-(5-tert-butyl-3-(2,2,4-trimethyl-3-oxopiperazine-1-carbonyl)thiophen-2-yl)-3-(4-methyl-3-(6-(5-methyl-1,3,4-oxadiazol-2-yl)pyridin-3-yl)phenyl)urea]",< 0.1 µM
5,"Cc1ccc(NC(=O)Nc2sc(C(C)(C)C)cc2C(=O)N2CCN(C)C(=O)C2(C)C)cc1-c1ccc(CN2CCN(C)CC2)nc1 [1-(5-tert-butyl-3-(2,2,4-trimethyl-3-oxopiperazine-1-carbonyl)thiophen-2-yl)-3-(4-methyl-3-(6-((4-methylpiperazin-1-yl)methyl)pyridin-3-yl)phenyl)urea]",< 0.1 µM
6,"Cc1ccc(NC(=O)Nc2sc(C(C)(C)C)cc2C(=O)N2CCN(C)C(=O)C2(C)C)cc1-c1ccc(CN2CCCC2)nc1 [1-(5-tert-butyl-3-(2,2,4-trimethyl-3-oxopiperazine-1-carbonyl)thiophen-2-yl)-3-(4-methyl-3-(6-(pyrrolidin-1-ylmethyl)pyridin-3-yl)phenyl)urea]",< 0.1 µM
7,"Cc1ccc(-c2cc(NC(=O)Nc3sc(C(C)(C)C)cc3C(=O)N3CCN(C)C(=O)C3(C)C)ccc2C)cn1 [1-(5-tert-butyl-3-(2,2,4-trimethyl-3-oxopiperazine-1-carbonyl)thiophen-2-yl)-3-(4-methyl-3-(6-methylpyridin-3-yl)phenyl)urea]",< 0.1 µM
8,"Cc1ncc(NC(=O)Nc2sc(C(C)(C)C)cc2C(=O)N2CCN(C)C(=O)C2(C)C)cc1C#CC1CC1 [1-(5-tert-butyl-3-(2,2,4-trimethyl-3-oxopiperazine-1-carbonyl)thiophen-2-yl)-3-(5-(cyclopropylethynyl)-6-methylpyridin-3-yl)urea]",< 0.1 µM
9,"Cc1ccc(NC(=O)Nc2oc(C(C)(C)C)cc2C(=O)N2CCNC(=O)C2(C)C)cc1-c1ccncc1 [1-(5-tert-butyl-3-(2,2-dimethyl-3-oxopiperazine-1-carbonyl)furan-2-yl)-3-(4-methyl-3-(pyridin-4-yl)phenyl)urea]",< 0.1 µM
10,"CC(C)(C)c1cc(C(=O)N2CCNC(=O)C2(C)C)c(NC(=O)Nc2cccc(-c3ccnc(F)c3)c2)s1 [1-(5-tert-butyl-3-(2,2-dimethyl-3-oxopiperazine-1-carbonyl)thiophen-2-yl)-3-(3-(2-fluoropyridin-4-yl)phenyl)urea]",< 0.1 µM
11,"Cc1nc(-c2cccc(NC(=O)Nc3sc(C(C)(C)C)cc3C(=O)N3CCNC(=O)C3(C)C)c2)cs1 [1-(5-tert-butyl-3-(2,2-dimethyl-3-oxopiperazine-1-carbonyl)thiophen-2-yl)-3-(3-(2-methylthiazol-4-yl)phenyl)urea]",< 0.1 µM
12,"Cc1ccc(NC(=O)Nc2sc(C(C)(C)C)cc2C(=O)N2CCNC(=O)C2(C)C)cc1-c1c(C)noc1C [1-(5-tert-butyl-3-(2,2-dimethyl-3-oxopiperazine-1-carbonyl)thiophen-2-yl)-3-(3-(3,5-dimethylisoxazol-4-yl)-4-methylphenyl)urea]",< 0.1 µM
13,"COCCOCC#Cc1cc(NC(=O)Nc2sc(C(C)(C)C)cc2C(=O)N2CCNC(=O)C2(C)C)ccc1C [1-(5-tert-butyl-3-(2,2-dimethyl-3-oxopiperazine-1-carbonyl)thiophen-2-yl)-3-(3-(3-(2-methoxyethoxy)prop-1-ynyl)-4-methylphenyl)urea]",< 0.1 µM
14,"CN1CCN(c2cccc(NC(=O)Nc3sc(C(C)(C)C)cc3C(=O)N3CCNC(=O)C3(C)C)c2)CC1 [1-(5-tert-butyl-3-(2,2-dimethyl-3-oxopiperazine-1-carbonyl)thiophen-2-yl)-3-(3-(4-methylpiperazin-1-yl)phenyl)urea]",< 10 µM
15,"CCc1ccc(-c2cc(NC(=O)Nc3sc(C(C)(C)C)cc3C(=O)N3CCNC(=O)C3(C)C)ccc2C)nc1 [1-(5-tert-butyl-3-(2,2-dimethyl-3-oxopiperazine-1-carbonyl)thiophen-2-yl)-3-(3-(5-ethylpyridin-2-yl)-4-methylphenyl)urea]",< 0.1 µM
16,"COc1ccc(-c2cc(NC(=O)Nc3sc(C(C)(C)C)cc3C(=O)N3CCNC(=O)C3(C)C)ccc2C)nc1 [1-(5-tert-butyl-3-(2,2-dimethyl-3-oxopiperazine-1-carbonyl)thiophen-2-yl)-3-(3-(5-methoxypyridin-2-yl)-4-methylphenyl)urea]",< 0.1 µM
17,"Cc1ccc(NC(=O)Nc2sc(C(C)(C)C)cc2C(=O)N2CCNC(=O)C2(C)C)cc1-c1ccc(OCCN(C)C)nc1 [1-(5-tert-butyl-3-(2,2-dimethyl-3-oxopiperazine-1-carbonyl)thiophen-2-yl)-3-(3-(6-(2-(dimethylamino)ethoxy)pyridin-3-yl)-4-methylphenyl)urea]",< 0.1 µM
